Key:
Felis catus [1] = species: Felis catus; assay: Effective dose required to produce an increase in dP/dt5 by 1500 mmHg/s in cats; type: functional
Rattus norvegicus [2] = species: Rattus norvegicus; assay: Effective dose required to produce an increase in dP/dt5 by 1500 mmHg/s in rats; type: functional
Rattus norvegicus [3] = assay: Maximum increase in dP/dt when administered intravenously in rats at 3 mg/kg dose.; type: functional; conditions: route intravenous
Canis familiaris [4] = assay: Time after which maximum increase in contractility was observed when administered orally in conscious dogs at 1 mg/kg; type: functional, Canis lupus familiaris; conditions: route oral
Canis familiaris [5] = assay: Maximum increase in dP/dt60 when administered orally in dogs at dose 1 mg/kg; type: functional, Canis lupus familiaris; conditions: route oral
Canis familiaris [6] = species: Canis familiaris; assay: Effective dose required to produce an increase in dP/dt5 by 1500 mmHg/s in dogs; type: functional, Canis lupus familiaris
Canis familiaris [7] = assay: Amount of time during which increase in administered orally in conscious dogs at 1 mg/kg; type: functional, Canis lupus familiaris; conditions: route oral
Felis catus [8] = assay: Maximum increase in dP/dt when administered intravenously in cats at 0.1 mg/kg dose.; type: functional; conditions: route intravenous
Rattus norvegicus [9] = assay: Maximum increase in dP/dt when administered intravenously in rats at 1 mg/kg dose.; type: functional; set-up: unit not given here; conditions: route intravenous
Canis familiaris [10] = assay: Maximum increase in dP/dt when administered intravenously in dogs at 0.03 mg/kg dose.; type: functional, Canis lupus familiaris; conditions: route intravenous
Rattus norvegicus [11] = assay: Maximum increase in dP/dt when administered intravenously in rats at 10 mg/kg dose.; type: functional; set-up: unit not given here; conditions: route intravenous
Canis familiaris [12] = assay: Maximum increase in dP/dt when administered intravenously in dogs at 1 mg/kg dose.; type: functional, Canis lupus familiaris; conditions: route intravenous
Canis familiaris [13] = assay: Maximum increase in dP/dt when administered intravenously in dogs at 0.3 mg/kg dose.; type: functional, Canis lupus familiaris; conditions: route intravenous
Felis catus [14] = assay: Maximum increase in dP/dt when administered intravenously in cats at 0.3 mg/kg.; type: functional; conditions: route intravenous
Felis catus [15] = assay: Maximum increase in dP/dt when administered intravenously in cats at 3 mg/kg dose.; type: functional; conditions: route intravenous
Rattus norvegicus [16] = assay: Maximum increase in dP/dt when administered intravenously in rats Value in parenthesis denotes dose at which test performed; type: functional
Felis catus [17] = assay: Maximum increase in dP/dt when administered intravenously in cats at 0.03 mg/kg dose.; type: functional; conditions: route intravenous
Canis familiaris [18] = assay: Maximum increase in dP/dt when administered intravenously in dogs at 0.1 mg/kg.; type: functional, Canis lupus familiaris; conditions: route intravenous
Rattus norvegicus [19] = assay: Maximum increase in dP/dt when administered intravenously in rats at 0.1 mg/kg dose.; type: functional; conditions: route intravenous
Rattus norvegicus [20] = assay: Maximum increase in dP/dt when administered intravenously in rats at […] dose.; type: functional

Row | Compound | ED1.5 (Felis catus [1]) [mg/kg] | ED1.5 (Rattus norvegicus [2]) [mg/kg] | also measured
1 | COc1ccccc1-c1nc2cc3c(cc2[nH]1)C(C)(C)C(=O)N3 | >3 | >3 | 
2 | CC1(C)C(=O)Nc2cc3[nH]c(-c4nc[nH]n4)nc3cc21 | 0.02 | 0.1 | Max (Rattus norvegicus [3]): 3.1 mHg s-1
3 | CC1(C)C(=O)Nc2cc3[nH]c(-c4cnsn4)nc3cc21 | 0.004 | 0.007 | Time (Canis familiaris [4]): 10 min; Max (Canis familiaris [5]): 3 mmHg s-1; ED1.5 (Canis familiaris [6]): 0.008 mg/kg; Duration (Canis familiaris [7]): 3 h; Max (Felis catus [8]): 2.6 mmHg s-1; Max (Rattus norvegicus [9]): 3.5; Max (Canis familiaris [10]): 2.3 mmHg s-1
4 | CC1(C)C(=O)Nc2cc3[nH]c(-c4ccncc4)cc3cc21 | 0.11 | 0.16 | Max (Rattus norvegicus [3]): 3.4 mHg s-1
5 | CC1(C)C(=O)Nc2cc3[nH]c(-c4cnc5ccccc5c4)nc3cc21 |  | >3 | 
6 | CC1(C)C(=O)Nc2cc3[nH]c(-c4ccc(-n5ccnc5)cc4)nc3cc21 | 0.25 | 1 | Max (Rattus norvegicus [11]): 2.8
7 | CC1(C)C(=O)Nc2cc3[nH]c(-c4c[nH]cn4)nc3cc21 |  | 0.12 | Time (Canis familiaris [4]): 120 min; ED1.5 (Canis familiaris [6]): 0.07 mg/kg; Duration (Canis familiaris [7]): 2 h; Max (Canis familiaris [12]): 2.7 mHg s-1
8 | Cc1nc2cc3nc(O)oc3cc2[nH]1 |  | >3 | 
9 | CN(C)c1ccc(-c2nc3cc4c(cc3[nH]2)C(C)(C)C(=O)N4)cc1 |  | >3 | 
10 | Cc1cc2cc3c(cc2[nH]1)NC(=O)C3(C)C |  | >3 | 
11 | CC1(C)C(=O)Nc2cc3[nH]c(S)nc3cc21 | 0.06 | 0.55 | Max (Rattus norvegicus [3]): 3.5 mHg s-1
12 | CC1(C)C(=O)Nc2cc3[nH]c(-c4cccs4)nc3cc21 | 0.07 | 0.12 | 
13 | CC1(C)C(=O)Nc2cc3[nH]c(-c4ccco4)nc3cc21 | 0.06 | 0.07 | Time (Canis familiaris [4]): 40 min; ED1.5 (Canis familiaris [6]): 0.06 mg/kg; Duration (Canis familiaris [7]): 2 h; Max (Canis familiaris [13]): 2.7 mHg/s; Max (Rattus norvegicus [3]): 2.9 mHg s-1
14 | Cn1c(-c2ccncc2)nc2cc3c(cc21)NC(=O)C3(C)C |  | >3 | 
15 | CCCc1nc2cc3c(cc2[nH]1)C(C)(C)C(=O)N3 | 0.12 | 0.17 | Max (Felis catus [14]): 2 mmHg s-1; Max (Rattus norvegicus [9]): 2.5
16 | C/C=C/c1nc2cc3c(cc2[nH]1)C(C)(C)C(=O)N3 |  | >3 | 
17 | CC1(C)C(=O)Nc2cc3[nH]c(-c4ccc[nH]4)nc3cc21 | 0.07 | 0.45 | ED1.5 (Canis familiaris [6]): 0.32 mg/kg; Max (Felis catus [15]): 2.3 mmHg s-1; Max (Canis familiaris [12]): 1.9 mHg s-1; Max (Rattus norvegicus [11]): 2.6
18 | CC1(C)C(=O)Nc2cc3[nH]c(-c4ccccc4)nc3cc21 | 0.15 | 0.37 | Duration (Canis familiaris [7]): 0 h; Max (Felis catus [15]): 3 mmHg s-1; Max (Rattus norvegicus [11]): 4.2
19 | CC1(C)C(=O)Nc2cc3[nH]nnc3cc21 |  | 0.18 | Max (Rattus norvegicus [16]): 2.6 mmHg s-1
20 | COc1ccc(-c2nc3cc4c(cc3[nH]2)C(C)(C)C(=O)N4)cc1 |  | >3 | 
21 | CC1(C)C(=O)Nc2cc3[nH]c(-c4ccnnc4)nc3cc21 | 0.01 | 0.04 | Time (Canis familiaris [4]): 150 min; Max (Canis familiaris [5]): 2.3 mmHg s-1; Max (Felis catus [17]): 2.4 mmHg s-1; ED1.5 (Canis familiaris [6]): 0.035 mg/kg; Max (Canis familiaris [18]): 2.6 mmHg s-1; Duration (Canis familiaris [7]): 5 h
22 | CC1(C)C(=O)Nc2cc3[nH]c(-c4ccc(O)cc4)nc3cc21 |  | >3 | 
23 | CC1(C)C(=O)Nc2cc3[nH]c(-c4cncnc4)nc3cc21 | 0.02 | 0.045 | Max (Rattus norvegicus [3]): 3.1 mHg s-1
24 | CC1(C)C(=O)Nc2cc3[nH]c(C(F)(F)F)nc3cc21 | 0.08 | 0.13 | Max (Rattus norvegicus [3]): 2.3 mHg s-1
25 | CN1C(=O)C(C)(C)c2cc3nc(-c4ccncc4)n(C)c3cc21 |  | >3 | 

Row | Compound | ED1.5 (Felis catus [1]) [mg/kg] | ED1.5 (Rattus norvegicus [2]) [mg/kg] | also measured
26 | Cn1c(O)nc2cc3[nH]c(O)nc3cc21 |  | >3 | 
27 | CC1(C)C(=O)Nc2cc3nc(O)oc3cc21 |  | >3 | 
28 | CCCn1c(O)nc2cc3[nH]c(-c4ccncc4)nc3cc21 |  | 1 | Max (Rattus norvegicus [3]): 1.6 mHg s-1
29 | CCn1c(O)nc2cc3[nH]c(-c4ccnnc4)nc3cc21 | 0.02 | 0.04 | Max (Rattus norvegicus [3]): 3.2 mHg s-1
30 | CC1(C)C(=O)Nc2cc3[nH]cnc3cc21 | 0.13 | 0.19 | Max (Rattus norvegicus [3]): 3.2 mHg s-1
31 | Oc1nc2cc3[nH]c(-c4ccncc4)nc3cc2s1 |  | 0.2 | 
32 | Oc1nc2cc3nc(-c4ccncc4)[nH]c3cc2o1 | 0.06 | 0.52 | ED1.5 (Canis familiaris [6]): 0.12 mg/kg; Duration (Canis familiaris [7]): 0 h; Max (Canis familiaris [13]): 2.6 mHg/s; Max (Rattus norvegicus [11]): 4.1
33 | Cn1c(O)nc2cc3[nH]c(-c4ccnnc4)nc3cc21 |  | 0.19 | Duration (Canis familiaris [7]): 0 h; Max (Rattus norvegicus [9]): 2.7
34 | Cn1c(O)nc2cc3c(cc21)C(C)(C)C(=O)N3 | 0.02 | 0.03 | Time (Canis familiaris [4]): 30 min; Max (Rattus norvegicus [19]): 2.4 mmHg s-1; Duration (Canis familiaris [7]): > 5 h; Max (Felis catus [8]): 2.1 mmHg s-1
35 | C=C(C)c1nc2cc3c(cc2[nH]1)C(C)(C)C(=O)N3 |  | >3 | 
36 | Oc1nc2cc3[nH]c(-c4ccncc4)nc3cc2[nH]1 |  | >3 | 
37 | CCCc1nc2cc3nc(O)oc3cc2[nH]1 |  | >3 | 
38 | COc1cc([S+](C)[O-])ccc1-c1nc2cc3c(cc2[nH]1)C(C)(C)C(=O)N3 (stereo not given) |  | >3 | 
39 | CC1(C)C(=O)Nc2cc3[nH]c(-c4cc5ccccc5[nH]4)nc3cc21 |  | >3 | 
40 | CC1(C)C(=O)Nc2cc3[nH]c(C4CCCCC4)nc3cc21 |  | >3 | 
41 | CC1(C)C(=O)Nc2cc3[nH]c(O)cc3cc21 |  | 0.11 | Max (Rattus norvegicus [20]): 2 mmHg s-1
42 | CC1(C)C(=O)Nc2cc3[nH]c(N)nc3cc21 |  | >3 | 
43 | COc1cc(S(C)(=O)=O)ccc1-c1nc2cc3c(cc2[nH]1)C(C)(C)C(=O)N3 |  | 2 | Max (Rattus norvegicus [3]): 1.8 mHg s-1
44 | CN1C(=O)C(C)(C)c2cc3[nH]c(-c4ccncc4)nc3cc21 |  | >3 | 
45 | CC1(C)C(=O)Nc2cc3[nH]c(-c4ccnnc4)cc3cc21 | 0.01 |  | 
46 | CC1(C)C(=O)Nc2cc3[nH]c(-c4ccc(O)nn4)nc3cc21 |  | 0.07 | Max (Rattus norvegicus [3]): 3.3 mHg s-1
47 | CC1(C)C(=O)Nc2cc3[nH]c(-c4ccnc5ccccc45)nc3cc21 |  | 2 | Max (Rattus norvegicus [3]): 1.8 mHg s-1
48 | CC1(C)C(=O)Nc2cc3[nH]c(-c4ccc(-n5ccnc5)cc4)cc3cc21 |  | >3 | 
49 | CC1(C)C(=O)Nc2cc3[nH]c(-c4ccncc4)nc3cc21 [ADIBENDAN] | 0.01 | 0.01 | Time (Canis familiaris [4]): 45 min; ED1.5 (Canis familiaris [6]): 0.2 mg/kg; Max (Rattus norvegicus [19]): 3.7 mmHg s-1; Duration (Canis familiaris [7]): > 6 h; Max (Canis familiaris [12]): 2 mHg s-1
50 | COc1ccc(-c2nc3cc(C4=NNC(=O)CC4C)ccc3[nH]2)cc1 (stereo not given) [PIMOBENDAN] | 0.6 | 1.3 | Time (Canis familiaris [4]): 30 min; ED1.5 (Canis familiaris [6]): 1.1 mg/kg; Duration (Canis familiaris [7]): 6 h; Max (Rattus norvegicus [3]): 2 mHg s-1; Max (Canis familiaris [12]): 1.3 mHg s-1

From ChEMBL document CHEMBL1124518, “Nonsteroidal cardiotonics. 2. The inotropic activity of linear, tricyclic 5-6-5 fused heterocycles” (1989)
